Results taken from ChEMBL document CHEMBL1132884, “Carbonic anhydrase inhibitors: synthesis of N-morpholylthiocarbonylsulfenylamino aromatic/heterocyclic sulfonamides and their interaction with isozymes I, II and IV” (Bioorg Med Chem Lett, 2000).
Values belong to the compound of their own block, whether it stands above or below them.

How the values were obtained:
[1] = target: Carbonic anhydrase 1 (Homo sapiens, UniProt P00915)
Description: Inhibition of human carbonic anhydrase I (CAI)

[2] = target: Carbonic anhydrase 2 (Homo sapiens, UniProt P00918)
Description: Inhibition of human carbonic anhydrase II (hCA II)

[3] = target: T1, Carbonic anhydrase 4 (Bos taurus, UniProt Q95323)
T1 sequence (Q95323 whole entry): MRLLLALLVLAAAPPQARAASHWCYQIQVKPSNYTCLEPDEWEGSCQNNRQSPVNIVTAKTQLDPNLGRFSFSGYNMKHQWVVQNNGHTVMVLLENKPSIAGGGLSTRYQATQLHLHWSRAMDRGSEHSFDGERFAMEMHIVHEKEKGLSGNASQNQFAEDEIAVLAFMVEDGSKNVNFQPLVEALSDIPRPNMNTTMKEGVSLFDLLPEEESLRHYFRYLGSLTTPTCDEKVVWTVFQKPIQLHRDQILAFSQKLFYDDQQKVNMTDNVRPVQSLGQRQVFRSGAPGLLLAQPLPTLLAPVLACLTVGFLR
Description: Inhibition of bovine carbonic anhydrase IV from bovine lung microsomes

[4] = tested on: MCF7; experiment: Compound was tested in vitro for its antitumor activity against breast cancer cell line MCF-7 (50% growth inhibition of tumor cells after 48 hr exposure ); assay type: functional; conditions: Homo sapiens, MCF7, 48 h
[5] = tested on: MDA-N; experiment: Compound was tested in vitro for its antitumor activity against breast cancer cell line MDA-N (50% growth inhibition of tumor cells after 48 hr exposure ); assay type: functional; conditions: Homo sapiens
[6] = tested on: SF-295; experiment: Compound was tested in vitro for its antitumor activity against CNS cancer cell line SF-295 (50% growth inhibition of tumor cells after 48 hr exposure ); assay type: functional; conditions: Homo sapiens, SF-295, 48 h
[7] = tested on: SF-268; experiment: Compound was tested in vitro for its antitumor activity against CNS cancer cell line SF-268 (50% growth inhibition of tumor cells after 48 hr exposure ); assay type: functional; conditions: Homo sapiens, SF-268, 48 h
[8] = tested on: COLO 205; experiment: Compound was tested in vitro for its antitumor activity against colon cancer cell line COLO-205 (50% growth inhibition of tumor cells after 48 hr exposure ); assay type: functional; conditions: Homo sapiens, COLO 205, 48 h
[9] = tested on: HOP-62; experiment: Compound was tested in vitro for its antitumor activity against non-small cell lung cancer cell line HOP-62(50% growth inhibition of tumor cells after 48 hr exposure ); assay type: functional; conditions: Homo sapiens, HOP-62, 48 h
[10] = tested on: NCI-H522; experiment: Compound was tested in vitro for its antitumor activity against non-small cell lung cancer cell line NCI-H522 (50% growth inhibition of tumor cells after 48 hr exposure ); assay type: functional; conditions: Homo sapiens, NCI-H522, 48 h
[11] = tested on: HL-60; experiment: Compound was tested in vitro for its antitumor activity against leukemia cell line HL-60(50% growth inhibition of tumor cells after 48 hr exposure ); assay type: functional; conditions: Homo sapiens, HL-60, 48 h
[12] = tested on: MOLT-4; experiment: Compound was tested in vitro for its antitumor activity against leukemia cell line MOLT-4 (50% growth inhibition of tumor cells after 48 hr exposure ); assay type: functional; conditions: Homo sapiens, MOLT-4, 48 h
[13] = tested on: LOX IMVI; experiment: Compound was tested in vitro for its antitumor activity against melanoma cell line LOX IMVI (50% growth inhibition of tumor cells after 48 hr exposure ); assay type: functional; conditions: Homo sapiens
[14] = tested on: M14; experiment: Compound was tested in vitro for its antitumor activity against melanoma cell line M14 (50% growth inhibition of tumor cells after 48 hr exposure ); assay type: functional; conditions: Homo sapiens, M14, 48 h
[15] = tested on: SK-MEL-2; experiment: Compound was tested in vitro for its antitumor activity against melanoma cell line SK-MEL-2 (50% growth inhibition of tumor cells after 48 hr exposure ); assay type: functional; conditions: Homo sapiens, SK-MEL-2, 48 h
[16] = tested on: IGROV-1; experiment: Compound was tested in vitro for its antitumor activity against ovarian cancer cell line IGROVI (50% growth inhibition of tumor cells after 48 hr exposure ); assay type: functional; conditions: Homo sapiens, IGROV-1, 48 h
[17] = tested on: OVCAR-4; experiment: Compound was tested in vitro for its antitumor activity against ovarian cancer cell line OVCAR-4 (50% growth inhibition of tumor cells after 48 hr exposure ); assay type: functional; conditions: Homo sapiens, OVCAR-4, 48 h
[18] = tested on: DU-145; experiment: Compound was tested in vitro for its antitumor activity against prostate cancer cell line DU-145 (50% growth inhibition of tumor cells after 48 hr exposure ); assay type: functional; conditions: Homo sapiens, DU-145, 48 h
[19] = tested on: 786-0; experiment: Compound was tested in vitro for its antitumor activity against renal cancer cell line […] (50% growth inhibition of tumor cells after 48 hr exposure ); assay type: functional; conditions: Homo sapiens, 786-0, 48 h
[20] = tested on: ACHN; experiment: Compound was tested in vitro for its antitumor activity against renal cancer cell line ACHN (50% growth inhibition of tumor cells after 48 hr exposure ); assay type: functional; conditions: Homo sapiens
[21] = tested on: CAKI-1; experiment: Compound was tested in vitro for its antitumor activity against renal cancer cell line CAKI-I (50% growth inhibition of tumor cells after 48 hr exposure ); assay type: functional; conditions: Homo sapiens, CAKI-1, 48 h
[22] = tested on: A549; experiment: Compound was tested in vitro for its antitumor activity against non-small cell lung cancer cell line A549/ATCC(50% growth inhibition of tumor cells after 48 hr exposure ); assay type: functional; conditions: Homo sapiens, A549, 48 h
[23] = tested on: PC-3; experiment: Compound was tested in vitro for its antitumor activity against prostate cancer cell line PC-3 (50% growth inhibition of tumor cells after 48 hr exposure ); assay type: functional; conditions: Homo sapiens, PC-3, 48 h
[24] = tested on: HCT-15; experiment: Compound was tested in vitro for its antitumor activity against colon cancer cell line HCT-15 (50% growth inhibition of tumor cells after 48 hr exposure ); assay type: functional; conditions: Homo sapiens, HCT-15, 48 h
[25] = tested on: SR; experiment: Compound was tested in vitro for its antitumor activity against leukemia cell line SR (50% growth inhibition of tumor cells after 48 hr exposure ); assay type: functional; conditions: Homo sapiens

Sequence of Carbonic anhydrase 1 (P00915 whole entry): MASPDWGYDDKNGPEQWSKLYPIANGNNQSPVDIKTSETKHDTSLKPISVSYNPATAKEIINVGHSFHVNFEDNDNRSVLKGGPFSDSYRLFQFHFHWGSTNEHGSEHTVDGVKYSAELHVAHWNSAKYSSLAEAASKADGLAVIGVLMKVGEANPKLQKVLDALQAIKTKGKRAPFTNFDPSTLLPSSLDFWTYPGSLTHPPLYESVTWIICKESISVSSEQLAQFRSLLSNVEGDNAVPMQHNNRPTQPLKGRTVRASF

SMILES: NS(=O)(=O)c1nnc(NSC(=S)N2CCOCC2)s1
Ki [1]: 240 nM
Ki [2]: 6 nM
Ki [3]: 25 nM

Ki [1]: 31 nM
Ki [2]: 7 nM
Ki [3]: 10 nM
SMILES: NS(=O)(=O)c1cccc(NS(=O)(=O)c2ccc(NSC(=S)N3CCOCC3)cc2)c1

SMILES: NS(=O)(=O)c1nnc(NS(=O)(=O)c2ccc(NSC(=S)N3CCOCC3)cc2)s1
Ki [1]: 5 nM
Ki [2]: 1.4 nM
Ki [3]: 4 nM

Ki [1]: 500 nM
Ki [2]: 18 nM
Ki [3]: 49 nM
SMILES: NS(=O)(=O)c1cc(S(N)(=O)=O)c(NSC(=S)N2CCOCC2)c(Cl)c1Cl

SMILES: Cn1nc(S(N)(=O)=O)s/c1=N/S(=O)(=O)c1ccc(NSC(=S)N2CCOCC2)cc1
Ki [1]: 2 nM
Ki [2]: 0.5 nM
Ki [3]: 1.3 nM

Ki [1]: 15000 nM
Ki [2]: 48 nM
Ki [3]: 140 nM
SMILES: CCN(C)C(=S)SNc1ccc(S(N)(=O)=O)cc1

SMILES: CCN(SC(=S)N1CCOCC1)C1CC(C)S(=O)(=O)c2sc(S(N)(=O)=O)cc21 (stereo not given)
Ki [1]: > 50000 nM
Ki [2]: 6 nM
Ki [3]: 22 nM

Ki [1]: 10000 nM
Ki [2]: 150 nM
Ki [3]: 290 nM
SMILES: NS(=O)(=O)c1cccc(NSC(=S)N2CCOCC2)c1

Ki [1]: 3000 nM
Ki [2]: 55 nM
Ki [3]: 170 nM
SMILES: NS(=O)(=O)c1ccc(NSC(=S)N2CCOCC2)c(I)c1

Ki [1]: 24000 nM
Ki [2]: 790 nM
Ki [3]: 650 nM
SMILES: NS(=O)(=O)c1ccc(NNSC(=S)N2CCOCC2)cc1

SMILES: NS(=O)(=O)c1nnc(NC(=O)CCNSC(=S)N2CCOCC2)s1
Ki [1]: 105 nM
Ki [2]: 2 nM
Ki [3]: 21 nM

Ki [1]: 2400 nM
Ki [2]: 48 nM
Ki [3]: 96 nM
SMILES: NS(=O)(=O)c1ccc(NSC(=S)N2CCOCC2)c(Br)c1

SMILES: NS(=O)(=O)c1ccc(CNSC(=S)N2CCOCC2)cc1
GI50 [4]: 30 nM
GI50 [5]: 15000 nM
GI50 [6]: 5400 nM
GI50 [7]: 16000 nM
GI50 [8]: 30000 nM
GI50 [9]: 15000 nM
GI50 [10]: 19 nM
GI50 [11]: 90 nM
GI50 [12]: 9000 nM
GI50 [13]: 12000 nM
GI50 [14]: 10000 nM
GI50 [15]: 12000 nM
GI50 [16]: 52000 nM
GI50 [17]: > 100000 nM
GI50 [18]: 13000 nM
GI50 [19]: 10000 nM
GI50 [20]: 15000 nM
GI50 [21]: 17000 nM
GI50 [22]: 38000 nM
GI50 [23]: 12000 nM
GI50 [24]: 24000 nM
GI50 [25]: 150 nM
Ki [1]: 620 nM
Ki [2]: 10 nM
Ki [3]: 35 nM

Ki [1]: 760 nM
Ki [2]: 33 nM
Ki [3]: 120 nM
SMILES: NS(=O)(=O)c1ccc(NSC(=S)N2CCOCC2)c(F)c1

Ki [1]: 560 nM
Ki [2]: 15 nM
Ki [3]: 90 nM
SMILES: NS(=O)(=O)c1cc(S(N)(=O)=O)c(NSC(=S)N2CCOCC2)cc1Cl

Ki [1]: 11500 nM
Ki [2]: 780 nM
Ki [3]: 500 nM
SMILES: NS(=O)(=O)c1ccccc1NSC(=S)N1CCOCC1

SMILES: NS(=O)(=O)c1ccc(NSC(=S)N2CCOCC2)cc1
GI50 [4]: 33 nM
GI50 [5]: 61000 nM
GI50 [6]: 44000 nM
GI50 [7]: 58000 nM
GI50 [8]: 32000 nM
GI50 [9]: 78000 nM
GI50 [10]: 420 nM
GI50 [11]: 86 nM
GI50 [12]: 10000 nM
GI50 [13]: 34000 nM
GI50 [14]: 14000 nM
GI50 [15]: 31000 nM
GI50 [16]: 70000 nM
GI50 [17]: > 100000 nM
GI50 [18]: 80000 nM
GI50 [19]: 12000 nM
GI50 [20]: 31000 nM
GI50 [21]: 30000 nM
GI50 [22]: 46000 nM
GI50 [23]: 24000 nM
GI50 [24]: 68000 nM
GI50 [25]: 200 nM
Ki [1]: 9000 nM
Ki [2]: 36 nM
Ki [3]: 100 nM

Ki [1]: 800 nM
Ki [2]: 40 nM
Ki [3]: 94 nM
SMILES: NS(=O)(=O)c1ccc(NSC(=S)N2CCOCC2)c(Cl)c1

Ki [1]: 200 nM
Ki [2]: 6 nM
Ki [3]: 26 nM
SMILES: Cn1nc(S(N)(=O)=O)s/c1=N/SC(=S)N1CCOCC1

SMILES: NS(=O)(=O)c1ccc(NS(=O)(=O)c2ccc(NSC(=S)N3CCOCC3)cc2)cc1
Ki [1]: 30 nM
Ki [2]: 3 nM
Ki [3]: 10 nM

Ki [1]: 630 nM
Ki [2]: 11 nM
Ki [3]: 30 nM
SMILES: CCN(C)C(=S)SNCCc1ccc(S(N)(=O)=O)cc1

Ki [1]: 950 nM
Ki [2]: 13 nM
Ki [3]: 41 nM
SMILES: CCN(C)C(=S)SNCc1ccc(S(N)(=O)=O)cc1

SMILES: NS(=O)(=O)c1ccc(CCNSC(=S)N2CCOCC2)cc1
GI50 [4]: 26 nM
GI50 [5]: 13000 nM
GI50 [6]: > 100000 nM
GI50 [7]: 90000 nM
GI50 [8]: 21000 nM
GI50 [9]: 62000 nM
GI50 [10]: 75 nM
GI50 [11]: 70 nM
GI50 [12]: 54000 nM
GI50 [13]: 5000 nM
GI50 [14]: 8000 nM
GI50 [15]: 5000 nM
GI50 [16]: 90 nM
GI50 [17]: 61000 nM
GI50 [18]: 10000 nM
GI50 [19]: 11000 nM
GI50 [20]: 15000 nM
GI50 [21]: 9000 nM
GI50 [22]: 11000 nM
GI50 [23]: 11000 nM
GI50 [24]: > 100000 nM
GI50 [25]: < 10 nM
Ki [1]: 360 nM
Ki [2]: 8 nM
Ki [3]: 24 nM
